In the assay the test system is influenza virus A/M2-V27A/L38F. The format is cell-based, Influenza A/Udorn/72 virus (recombinant mutant).

For `NC12CC3CC(CC(C3)C1)C2` [Amantadine, amantadine], the Plaque count stood at 82 plaques/well; the “effect on plaque formation (count and size)” value (shortened to “effect on plaque formation”) is on record as “failed to inhibit plaque formation”.
As for `C1CCC2(CC1)CCN(C1=NCCN1)CC2` [BL-1743, 2-[3-azaspiro([5],[5])undecanol]-2-imidazoline], the Plaque count amounted to 86 plaques/well; the “effect on plaque formation” value is “failed to inhibit plaque formation”.
Turning to `NC1CCC2(CCCCC2)CC1` [Compound 8, spiro[5.5]undecan-3-amine], the Plaque count worked out at 37 plaques/well; the “effect on plaque formation” value is on record as “reduced”.

The record behind these values is paper PMC2794939 (Biochemistry, 2009).
